Experimental data published in ChEMBL document CHEMBL1133582, “Water-soluble phosphate prodrugs of 1-propargyl-8-styrylxanthine derivatives, A(2A)-selective adenosine receptor antagonists” (J Med Chem, 2000).

Columns and labels:
[1] = biological target: T1, Adenosine receptor A1 (Rattus norvegicus, UniProt P25099); assay: Binding affinity against adenosine A1 receptor of rat brain cortical membranes using [3H]CHA
T1 sequence (P25099 whole entry): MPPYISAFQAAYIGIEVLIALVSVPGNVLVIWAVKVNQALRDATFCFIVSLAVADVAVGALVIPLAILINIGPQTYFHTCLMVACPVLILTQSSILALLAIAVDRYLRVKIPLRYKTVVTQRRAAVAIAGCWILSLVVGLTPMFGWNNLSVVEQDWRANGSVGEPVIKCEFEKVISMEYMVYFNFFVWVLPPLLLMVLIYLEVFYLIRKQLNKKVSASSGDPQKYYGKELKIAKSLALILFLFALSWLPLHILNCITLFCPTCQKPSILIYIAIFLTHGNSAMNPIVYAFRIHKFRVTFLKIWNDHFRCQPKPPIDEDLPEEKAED

[2] = biological target: Adenosine receptor A2a (Rattus norvegicus, UniProt P30543); assay: Binding affinity against adenosine A2A receptor of rat brain striatal membranes using [3H]CGS-21680
Adenosine receptor A2a (Rattus norvegicus, UniProt P30543), sequence (P30543 whole entry): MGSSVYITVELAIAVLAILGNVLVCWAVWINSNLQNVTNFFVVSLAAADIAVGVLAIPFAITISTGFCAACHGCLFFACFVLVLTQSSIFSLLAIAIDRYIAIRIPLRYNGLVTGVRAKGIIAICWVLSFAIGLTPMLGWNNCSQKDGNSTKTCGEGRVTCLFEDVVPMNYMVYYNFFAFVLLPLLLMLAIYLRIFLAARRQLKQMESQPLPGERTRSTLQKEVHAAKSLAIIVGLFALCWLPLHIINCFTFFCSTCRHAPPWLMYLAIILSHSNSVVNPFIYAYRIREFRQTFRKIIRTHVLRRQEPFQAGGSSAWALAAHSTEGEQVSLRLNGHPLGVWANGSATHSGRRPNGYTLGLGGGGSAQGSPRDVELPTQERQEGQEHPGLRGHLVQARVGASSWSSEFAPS

[3] = biological target: T2, Adenosine receptor A2b (Homo sapiens, UniProt P29275); assay: Inhibition of NECA-induced stimulation of adenylate cyclase at human adenosine A2B receptor; assay type: functional
T2 sequence (P29275 whole entry): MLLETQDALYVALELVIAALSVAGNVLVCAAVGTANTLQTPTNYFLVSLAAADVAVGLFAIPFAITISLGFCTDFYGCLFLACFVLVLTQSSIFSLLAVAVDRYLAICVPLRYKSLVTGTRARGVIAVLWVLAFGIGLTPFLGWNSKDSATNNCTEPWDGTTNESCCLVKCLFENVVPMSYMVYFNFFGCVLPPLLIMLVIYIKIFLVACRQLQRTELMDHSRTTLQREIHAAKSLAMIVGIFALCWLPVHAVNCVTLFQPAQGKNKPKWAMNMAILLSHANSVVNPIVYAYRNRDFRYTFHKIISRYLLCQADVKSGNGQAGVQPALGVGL

[4] = biological target: T3, Adenosine receptor A3 (Homo sapiens, UniProt P0DMS8); assay: Binding affinity against human adenosine A3 receptor in CHO cell membranes using [3H]NECA
T3 sequence (P0DMS8 whole entry): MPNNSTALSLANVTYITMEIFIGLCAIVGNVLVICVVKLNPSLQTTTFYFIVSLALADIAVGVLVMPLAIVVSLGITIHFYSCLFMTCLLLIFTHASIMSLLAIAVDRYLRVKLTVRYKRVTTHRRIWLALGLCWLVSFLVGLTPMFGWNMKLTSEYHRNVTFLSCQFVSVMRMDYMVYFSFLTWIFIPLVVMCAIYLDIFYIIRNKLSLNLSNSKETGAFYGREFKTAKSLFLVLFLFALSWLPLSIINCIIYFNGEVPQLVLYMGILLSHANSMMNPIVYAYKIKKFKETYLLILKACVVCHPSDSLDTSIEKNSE

[5] = biological target: T1, Adenosine receptor A1; assay: Binding affinity against adenosine A1 receptor of rat without and after pre-incubation with alkaline phosphatase
[6] = biological target: T4, Adenosine receptor A1 (Homo sapiens, UniProt P30542); assay: Binding affinity against human adenosine A1 receptor using [3H]-CCPA (95% confidence)
T4 sequence (P30542 whole entry): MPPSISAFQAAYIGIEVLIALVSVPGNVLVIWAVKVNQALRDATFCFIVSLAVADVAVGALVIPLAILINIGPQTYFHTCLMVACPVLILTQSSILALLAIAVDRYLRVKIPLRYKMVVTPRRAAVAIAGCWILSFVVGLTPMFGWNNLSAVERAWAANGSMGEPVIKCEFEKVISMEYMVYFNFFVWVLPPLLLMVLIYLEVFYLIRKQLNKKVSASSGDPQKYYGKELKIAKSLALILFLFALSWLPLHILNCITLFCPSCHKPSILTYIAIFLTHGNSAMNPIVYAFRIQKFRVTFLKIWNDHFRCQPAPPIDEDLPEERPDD

[7] = biological target: T5, Adenosine receptor A2a (Homo sapiens, UniProt P29274)
T5 sequence (P29274 whole entry): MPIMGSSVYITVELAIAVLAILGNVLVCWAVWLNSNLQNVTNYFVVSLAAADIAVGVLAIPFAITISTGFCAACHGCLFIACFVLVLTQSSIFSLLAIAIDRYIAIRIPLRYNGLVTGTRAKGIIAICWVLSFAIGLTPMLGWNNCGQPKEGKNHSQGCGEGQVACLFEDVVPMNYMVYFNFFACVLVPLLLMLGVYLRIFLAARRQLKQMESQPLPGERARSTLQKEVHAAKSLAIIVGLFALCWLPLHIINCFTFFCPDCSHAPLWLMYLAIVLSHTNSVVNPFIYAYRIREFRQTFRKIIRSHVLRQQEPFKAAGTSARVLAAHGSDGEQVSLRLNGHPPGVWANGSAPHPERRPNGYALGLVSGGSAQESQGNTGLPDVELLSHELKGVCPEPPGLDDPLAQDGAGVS
Description: Binding affinity against human adenosine A2A receptor using [3H]CGS-21680 (95% confidence)

[8] = biological target: T5, Adenosine receptor A2a; remark: listed apart in the source
Description: Binding affinity against human post-mortem brain adenosine A2A receptor using nuclei caudati and [3H]-CGS-21,680

Row | Compound | Ki [1] [nM] | Ki [2] [nM] | also measured
1 | C#CCn1c(=O)c2c(nc(/C=C/c3cccc(OC)c3)n2C)n(CCO)c1=O | 1040 | 39 | –
2 | C#CCn1c(=O)c2c(nc(/C=C/c3cccc(N)c3)n2C)n(C)c1=O | 1070 | 42 | –
3 | C#CCn1c(=O)c2c(nc(/C=C/c3cccc(Br)c3)n2C)n(CCCO)c1=O | 625 | 13 | –
4 | C#CCn1c(=O)c2c(nc(/C=C/c3cccc(Br)c3)n2C)n(CCO)c1=O | 1280 | 25 | –
5 | C#CCn1c(=O)c2c(nc(/C=C/c3cccc(Br)c3)n2C)n(C)c1=O | – | – | Ki [3]: > 10000 nM; Ki [4]: > 10000 nM
6 | C#CCn1c(=O)c2c(nc(/C=C/c3cccc(OC)c3)n2C)n(CCCOP(=O)(O)O)c1=O | – | – | Ki [5]: 1120 nM
7 | C#CCn1c(=O)c2c(nc(/C=C/c3cccc(OC)c3)n2C)n(CCCO)c1=O | 900 | 8 | Ki [3]: > 10000 nM; Ki [6]: 2500 nM; Ki [4]: > 10000 nM; Ki [7]: 5 nM; Ki [8]: 15 nM
8 | C#CCn1c(=O)c2c(nc(/C=C/c3cccc(OC)c3)n2C)n(C)c1=O | 1280 | 12 | –
9 | C#CCn1c(=O)c2c(nc(/C=C/c3cccc(O)c3)n2C)n(C)c1=O | 940 | 21 | –
